What was measured:
AIDV [1] = assay: AIDV infection of H9 human lymphoblastoid cell-line; format: cell-based; settings: concentrations as low as; up to 20 hours after infection
AIDV [2] = assay: AIDV infection of U937 cells, PHA-stimulated white blood cells and cultured peripheral blood lymphocytes; format: cell-based
AIDV [3] = format: cell-based
AIDV [4] = format: cell-based; settings: same cell-line transformed by HTLV-I and super-infected with AIDV
[5] = test system: Rauscher Murine Leukaemia Virus; assay: Mouse model of retrovirus-induced malignancy (splenomegaly); format: in vivo
HTLV-I = assay: In vitro replication of HTLV-I; format: cell-based; settings: concentrations as low as
vaccinia = settings: De Clerq et al.; cited from earlier work
HSVI = settings: De Clerq et al.; cited from earlier work
[6] = test system: varicella zoster virus (VZV); settings: De Clerq et al.; cited from earlier work
[7] = test system: Friend Leukaemia Virus (FLV); settings: cited from earlier work
[8] = target: T1, AIDV reverse transcriptase (Human immunodeficiency virus type 1 group M subtype B, UniProt P04585); assay: Inhibition of purified AIDV reverse transcriptase; format: biochemical; settings: purified enzyme; for activity of AIDV reverse transcriptase: in vitro
T1 construct: purified AIDV reverse transcriptase
Description: This property is both unusual and valuable for the treatment and prophylaxis of CNS infections caused by human retroviruses.

human DNA polymerase = assay: Effect on human DNA polymerase activity; format: biochemical; settings: in vitro
[9] = test system: avian myeloblastosis virus and Moloney murine leukaemia virus; assay: Chain termination of reverse transcription; format: biochemical; settings: evidenced by effect on avian myeloblastosis virus and Moloney murine leukaemia virus

Compound | concentration effectively preventing infection of the H9 human lymphoblastoid cell-line by AIDV (AIDV [1]) [µg/mL] | AIDV infection of PHA-stimulated white blood cells (AIDV [2]; PHA-stimulated white blood cells) | AIDV infection of U937 human lymphoblastoid cells (AIDV [2]; U937 human lymphoblastoid cells) | AIDV infection of cultured peripheral blood lymphocytes (AIDV [2]; cultured peripheral blood lymphocytes) | decrease in cells (AIDV [3]) | Cytopathic effects (AIDV [4]) | splenomegaly caused by intravenously administered Rauscher Murine Leukaemia Virus [5] | concentration inhibiting the in vitro replication of HTLV-I (HTLV-I) [µg/mL] | conversion in vivo by cellular enzymes | activity against vaccinia (vaccinia) | activity against HSVI (HSVI) | activity against varicella zoster virus (VZV) [6] | cellular toxicity [7] | formation of A-type particles of FLV complex ([7]; in vitro, Krieg et al.) | release of C-type particles of FLV complex ([7]; in vitro, Krieg et al.) | mechanism of inhibition of AIDV reverse transcriptase [8] | activity of AIDV reverse transcriptase [8] | activity of AIDV reverse transcriptase ([8]; […]) | effect on human DNA polymerase activity (human DNA polymerase) | chain termination in the reverse transcription of AIDV [9]
Cc1cn([C@H]2C[C@H](N=[N+]=[N-])[C@@H](CO)O2)c(=O)[nH]c1=O | 0.013 | prevented at similarly low concentrations | prevented at similarly low concentrations | prevented at similarly low concentrations | no decrease | completely blocked | prevented | 0.8 | converted in vivo, by the action of cellular enzymes into the 5'-monophosphate | no appreciable activity | no appreciable activity | no appreciable activity | lack of cellular toxicity | increased | affected | – | – | – | – | –
Cc1cn([C@H]2C[C@H](N=[N+]=[N-])[C@@H](COP(=O)(O)OP(=O)(O)OP(=O)(O)O)O2)c(=O)[nH]c1=O [3'-Azido-3'-deoxythymidine-5'-triphosphate] | – | – | – | – | – | – | – | – | – | – | – | – | – | – | – | competitive inhibition | blocked | inhibits | negligible effect | effective chain terminator
Cc1cn([C@H]2C[C@H](N=[N+]=[N-])[C@@H](COP(=O)(O)O)O2)c(=O)[nH]c1=O [Example 13] | – | – | – | – | – | – | – | – | further phosphorylated by other enzymes to form the triphosphate via the diphosphate | – | – | – | – | – | – | – | – | – | – | –

Source: patent EP0306597B2, “Antiviral nucleosides” (THE WELLCOME FOUNDATION LIMITED, priority 1985, dated 1986)
